According to article PMC10648875 (Antimicrobial Agents and Chemotherapy, 2023):
Converted amounts (≈) assume the structure as drawn. “And” between values parts separate entries of the source, which are not always exact repeats. Equal entries are not always repeated. Where two headings read alike, the source gives them in different places.

Tests used:
PAM4874 producing SHV-12 = experiment: MIC, engineered isogenic strain; assay type: cell-based, P. aeruginosa; settings: SHV-12, class A; BLIs at fixed 4 µg/mL
PAM4917 producing NDM-7 = experiment: MIC, engineered isogenic strain; assay type: cell-based, P. aeruginosa; settings: NDM-7, class B; BLIs at fixed 4 µg/mL
PAM4887 producing IMP-1 = experiment: MIC, engineered isogenic strain; assay type: cell-based, P. aeruginosa; settings: IMP-1, class B; BLIs at fixed 4 µg/mL
[1] = test system: Escherichia coli NCTC 13353 (ECM7514), CTX-M-15; experiment: MIC, reference strain; assay type: cell-based; settings: CTX-M-15, BLI at the fixed concentration in brackets
Experimental: (§1) Other BL/BLI combinations were tested at their recommended BLI concentrations. MIC values for the partner antibiotics and BLIs alone were also determined (Table 2; Table S1). All investigational and marketed BLIs enhanced the potency of antibiotics according to their spectrum of inhibition. MIC values against CLSI-approved QC strains were within acceptable ranges for drugs and combinations tested (Table 3).
(§2) Isolates were tested for antimicrobial susceptibility using the broth microdilution methodology per CLSI M07 (2018) guidelines ([40]). JMI Laboratories produced frozen-form 96-well panels with cation-adjusted Mueller-Hinton broth as the testing medium. Current CLSI quality assurance practices were followed when performing the susceptibility tests. MIC values were validated by concurrently testing the following CLSI-recommended ([27]) QC reference strains: E. coli NCTC 13353 (CTX-M-15), Klebsiella pneumoniae ATCC BAA-2814 (KPC-3), Klebsiella pneumoniae ATCC BAA-1705 (KPC-2), and K. pneumoniae ATCC 700603 (SHV-18). The inoculum density during susceptibility testing was monitored by bacterial colony counts. Where applicable, QC ranges for tested reference strains were those approved or published by the CLSI ([27]). Meropenem was purchased from Carbosynth; ceftolozane was synthesized at Acme Bioscience, Palo Alto, CA, USA; all other antibiotics were from Sigma Aldrich. Xeruborbactam was synthesized at Qpex Biopharma, San Diego, CA, USA. Avibactam was purchased from eNovation, Chemicals LLC, Bridgewater, NJ, USA. Vaborbactam was synthesized at The Medicines Company, San Diego, CA. Relebactam, taniborbactam, and relebactam were synthesized at Acme Bioscience.

[2] = test system: E. coli CDC 0069 (EC1106), NDM-1; experiment: MIC, reference strain; assay type: cell-based; settings: BLI at the fixed concentration in brackets
Experimental: as §1
as §2, with “([27]).” for “([27]). Meropenem was purchased from Carbosynth; ceftolozane was synthesized at Acme Bioscience, Palo Alto, CA, USA; all other antibiotics were from Sigma Aldrich. Xeruborbactam was synthesized at Qpex Biopharma, San Diego, CA, USA. Avibactam was purchased from eNovation, Chemicals LLC, Bridgewater, NJ, USA. Vaborbactam was synthesized at The Medicines Company, San Diego, CA. Relebactam, taniborbactam, and relebactam were synthesized at Acme Bioscience.”

[3] = test system: K. pneumoniae ATCC BAA-1705 (KPM1123), KPC-2; experiment: MIC, reference strain; assay type: cell-based; settings: for MIC: KPC-2, BLI at the fixed concentration in brackets
Experimental: as §1
as §2, with “([27]).” for “([27]). Meropenem was purchased from Carbosynth; ceftolozane was synthesized at Acme Bioscience, Palo Alto, CA, USA; all other antibiotics were from Sigma Aldrich. Xeruborbactam was synthesized at Qpex Biopharma, San Diego, CA, USA. Avibactam was purchased from eNovation, Chemicals LLC, Bridgewater, NJ, USA. Vaborbactam was synthesized at The Medicines Company, San Diego, CA. Relebactam, taniborbactam, and relebactam were synthesized at Acme Bioscience.”

[4] = test system: K. pneumoniae ATCC BAA-2814 (KP1074), KPC-3; experiment: MIC, reference strain; assay type: cell-based; settings: for MIC: KPC-3, BLI at the fixed concentration in brackets
Experimental: as §1
as §2, with “([27]).” for “([27]). Meropenem was purchased from Carbosynth; ceftolozane was synthesized at Acme Bioscience, Palo Alto, CA, USA; all other antibiotics were from Sigma Aldrich. Xeruborbactam was synthesized at Qpex Biopharma, San Diego, CA, USA. Avibactam was purchased from eNovation, Chemicals LLC, Bridgewater, NJ, USA. Vaborbactam was synthesized at The Medicines Company, San Diego, CA. Relebactam, taniborbactam, and relebactam were synthesized at Acme Bioscience.”

[5] = test system: K. pneumoniae CDC 0135 (KP1291), VIM-1; experiment: MIC, reference strain; assay type: cell-based; settings: BLI at the fixed concentration in brackets
Experimental: as §1
as §2, with “([27]).” for “([27]). Meropenem was purchased from Carbosynth; ceftolozane was synthesized at Acme Bioscience, Palo Alto, CA, USA; all other antibiotics were from Sigma Aldrich. Xeruborbactam was synthesized at Qpex Biopharma, San Diego, CA, USA. Avibactam was purchased from eNovation, Chemicals LLC, Bridgewater, NJ, USA. Vaborbactam was synthesized at The Medicines Company, San Diego, CA. Relebactam, taniborbactam, and relebactam were synthesized at Acme Bioscience.”

[6] = test system: Klebsiella pneumoniae ATCC 700603 (KPM2881), SHV-18; experiment: MIC, reference strain; assay type: cell-based; settings: SHV-18, BLI at the fixed concentration in brackets
Experimental: as §1
as §2, with “([27]).” for “([27]). Meropenem was purchased from Carbosynth; ceftolozane was synthesized at Acme Bioscience, Palo Alto, CA, USA; all other antibiotics were from Sigma Aldrich. Xeruborbactam was synthesized at Qpex Biopharma, San Diego, CA, USA. Avibactam was purchased from eNovation, Chemicals LLC, Bridgewater, NJ, USA. Vaborbactam was synthesized at The Medicines Company, San Diego, CA. Relebactam, taniborbactam, and relebactam were synthesized at Acme Bioscience.”

[7] = test system: P. aeruginosa BAA-3197 (PA5257), KPC-2; experiment: MIC, reference strain; assay type: cell-based; settings: KPC-2, BLI at the fixed concentration in brackets
[8] = test system: surveillance isolates of carbapenem-resistant strains of Enterobacterales; experiment: MIC testing of SENTRY surveillance CRE isolates (Table 4, Table S4); assay type: cell-based; settings: for % Inhibited: at ≤8 µg/mL β-lactam (IMP/REL ≤1/4, MEM/VAB ≤4/8 (≤8/8) µg/mL), footnote b; for MIC50: read-out: MIC50
[9] = test system: carbapenem-resistant Enterobacterales (subset of 507 isolates); experiment: organism not typed; assay type: cell-based; settings: xeruborbactam and vaborbactam fixed 8 mg/L, all other BLIs 4 mg/L; for MIC50: read-out: MIC50; for MIC90: read-out: MIC90
VIM-1 (lysate of KP1015) = molecular target: T1, VIM-1 (lysate of KP1015) (Pseudomonas aeruginosa, UniProt A0A0F7KYQ8); experiment: IC50 of β-lactamase inhibition (imipenem cleavage) in cell lysates; assay type: biochemical, K. pneumoniae; settings: KP1015, VIM-1; imipenem cleavage; read-out: IC50 of β-lactamase inhibition in cell lysates
T1 construct: endogenous in cells; host or cells: K. pneumoniae KP1015

C[C@@H](O)[C@H]1C(=O)N2C(C(=O)O)=C(S[C@@H]3CN[C@H](C(=O)N(C)C)C3)[C@H](C)[C@H]12 [MEM, meropenem]
MIC (PAM4874 producing SHV-12): 0.25 µg/mL (≈ 0.652 µM) | MIC (PAM4917 producing NDM-7): 32 µg/mL (≈ 83.4 µM) | MIC (PAM4887 producing IMP-1): 4 µg/mL (≈ 10.4 µM) | MIC ([1]; Escherichia coli, NCTC13353, read-out: MIC): ≤ 0.03 µg/mL | MIC ([2]; Escherichia coli, read-out: MIC): 32 µg/mL | MIC ([3]; Klebsiella pneumoniae, ATCCBAA1705, read-out: MIC): 32 µg/mL | MIC (number of observations) ([3]; Table S1, repeated QC testing): 8 (2)-16 (16)-32 (28) µg/ml | MIC ([4]; Klebsiella pneumoniae, ATCCBAA2814, read-out: MIC): > 64 µg/mL | MIC (number of observations) ([4]; Table S1, repeated QC testing): > 32 µg/mL | MIC ([5]; Klebsiella pneumoniae, read-out: MIC): 8 µg/mL | MIC ([6]; Klebsiella pneumoniae, ATCC700603, read-out: MIC): ≤ 0.03 µg/mL | MIC ([7]; Pseudomonas aeruginosa, BAA3197, read-out: MIC): > 64 µg/mL | MIC90 [8]: 16 and > 32 | % Inhibited ([8]; All surveillance CRE): 30.20% | MIC50 ([8]; All surveillance CRE): 32 µg/mL (≈ 83.4 µM) | MIC90 ([8]; All surveillance CRE, read-out: MIC90): > 32 µg/mL | % Inhibited ([8]; KPC subset): 29.50% | MIC50 ([8]; KPC subset): 32 µg/mL (≈ 83.4 µM) | MIC90 ([8]; KPC subset, read-out: MIC90): > 32 µg/mL | % Inhibited ([8]; MBL subset): 9.00% | MIC50 ([8]; MBL subset): > 32 µg/mL | MIC90 ([8]; MBL subset, read-out: MIC90): > 32 µg/mL | % Inhibited ([8]; NDM subset): 6.30% | MIC50 ([8]; NDM subset): > 32 µg/mL | MIC90 ([8]; NDM subset, read-out: MIC90): > 32 µg/mL | % Inhibited ([8]; No MBL subset): 39.40% | MIC50 ([8]; No MBL subset): 16 µg/mL (≈ 41.7 µM) | MIC90 ([8]; No MBL subset, read-out: MIC90): > 32 µg/mL | % Inhibited ([8]; Non-CP CRE subset): 81.80% | MIC50 ([8]; Non-CP CRE subset): 8 µg/mL (≈ 20.9 µM) | MIC90 ([8]; Non-CP CRE subset, read-out: MIC90): 16 µg/mL (≈ 41.7 µM) | % Inhibited ([8]; OXA-48 subset): 37.20% | MIC50 ([8]; OXA-48 subset): 32 µg/mL (≈ 83.4 µM) | MIC90 ([8]; OXA-48 subset, read-out: MIC90): > 32 µg/mL | % Inhibited ([8]; VIM subset): 35.00% | MIC50 ([8]; VIM subset): 16 µg/mL (≈ 41.7 µM) | MIC90 ([8]; VIM subset, read-out: MIC90): > 32 µg/mL | MIC50 ([9]; CRE (N = 507)): 0.5 µg/mL | MIC90 ([9]; CRE (N = 507)): > 64 µg/mL | MIC50 ([9]; KPC (N = 193)): 16 µg/mL | MIC90 ([9]; KPC (N = 193)): > 64 µg/mL | MIC50 ([9]; MBL (N = 168)): 64 µg/mL | MIC90 ([9]; MBL (N = 168)): > 64 µg/mL | MIC50 ([9]; Non-CP CRE (N = 50)): 4 µg/mL | MIC90 ([9]; Non-CP CRE (N = 50)): 16 µg/mL | MIC50 ([9]; OXA-48-like (N = 96)): 16 µg/mL | MIC90 ([9]; OXA-48-like (N = 96)): 64 µg/mL

NCCN[C@H]1CC[C@H](CC(=O)N[C@H]2Cc3cccc(C(=O)O)c3OB2O)CC1 [Taniborbactam, taniborbactam]
MIC [1]: >64 µg/mL | MIC [2]: >64 µg/mL | MIC [3]: >64 µg/mL | MIC [4]: >64 µg/mL | MIC [5]: >64 µg/mL | MIC [6]: >64 µg/mL | MIC [7]: >64 µg/mL | IC50 (VIM-1 (lysate of KP1015)): 190 ± 10 nM
